From the supplement of paper PMC10307832

How the values were obtained:
Assay in all cases: relative viability (nuclei count vs DMSO), 5 days (fraction); higher = more cells survive
NCI-H2085 = tested on: NCI-H2085
How it was run: (§1)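 One day after seeding in 1536-well plates, lung cancer cell lines were dosed by pin tool. Dosing was either single-drug or a fixed anchor-drug dose plus five library-drug doses (not always all listed) in √10 steps. After 5 days, nuclei were stained in one fix-and-stain step and counted on 4× images, and relative viability is the nuclei count of treated wells over that of vehicle wells, given as the median of duplicate plates.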

BEN = tested on: BEN
How it was run: as §1

PC-14 = tested on: PC-14
How it was run: as §1

NCI-H1355 = tested on: NCI-H1355
How it was run: as §1

NCI-H2009 = tested on: NCI-H2009
How it was run: as §1

LCLC-97TM1 = tested on: LCLC-97TM1
How it was run: as §1

NCI-H322M = tested on: NCI-H322M
How it was run: as §1

NCI-H460 = tested on: NCI-H460
How it was run: as §1

HCC-78 = tested on: HCC-78
How it was run: as §1

201T = tested on: 201T
How it was run: as §1

NCI-H650 = tested on: NCI-H650
How it was run: as §1

NCI-H2126 = tested on: NCI-H2126
How it was run: as §1

LU99A = tested on: LU99A
How it was run: as §1

NCI-H647 = tested on: NCI-H647
How it was run: as §1

NCI-H1395 = tested on: NCI-H1395
How it was run: as §1

NCI-H2405 = tested on: NCI-H2405
How it was run: as §1

NCI-H23 = tested on: NCI-H23
How it was run: as §1

NCI-H2342 = tested on: NCI-H2342
How it was run: as §1

HCC-15 = tested on: HCC-15
How it was run: as §1

EPLC-272H = tested on: EPLC-272H
How it was run: as §1

NCI-H661 = tested on: NCI-H661
How it was run: as §1

NCI-H838 = tested on: NCI-H838
How it was run: as §1

CCNC(=O)c1noc(-c2cc(C(C)C)c(O)cc2O)c1-c1ccc(CN2CCOCC2)cc1 [Luminespib] + Nc1ncn([C@H]2C[C@H](O)[C@@H](CO)O2)c(=O)n1 [Decitabine] (partner 2 µM)
relative viability (NCI-H2085; first compound 0.002 µM): 0.547 | relative viability (NCI-H2085; first compound 0.006325 µM): 0.577 | relative viability (NCI-H2085; first compound 0.02 µM): 0.519 | relative viability (NCI-H2085; first compound 0.06325 µM): 0.486 | relative viability (NCI-H2085; first compound 0.2 µM): 0.346 | relative viability (BEN; first compound 0.002 µM): 0.84 | relative viability (BEN; first compound 0.006325 µM): 0.644 | relative viability (BEN; first compound 0.02 µM): 0.458 | relative viability (BEN; first compound 0.06325 µM): 0.306 | relative viability (BEN; first compound 0.2 µM): 0.294 | relative viability (PC-14; first compound 0.002 µM): 0.23 | relative viability (PC-14; first compound 0.006325 µM): 0.21 | relative viability (PC-14; first compound 0.02 µM): 0.123 | relative viability (PC-14; first compound 0.06325 µM): 0.076 | relative viability (PC-14; first compound 0.2 µM): 0.0786 | relative viability (NCI-H1355; first compound 0.002 µM): 0.359 | relative viability (NCI-H1355; first compound 0.006325 µM): 0.354 | relative viability (NCI-H1355; first compound 0.02 µM): 0.334 | relative viability (NCI-H1355; first compound 0.06325 µM): 0.346 | relative viability (NCI-H1355; first compound 0.2 µM): 0.243 | relative viability (NCI-H2009; first compound 0.002 µM): 0.405 | relative viability (NCI-H2009; first compound 0.006325 µM): 0.364 | relative viability (NCI-H2009; first compound 0.02 µM): 0.368 | relative viability (NCI-H2009; first compound 0.06325 µM): 0.187 | relative viability (NCI-H2009; first compound 0.2 µM): 0.135 | relative viability (LCLC-97TM1; first compound 0.002 µM): 0.249 | relative viability (LCLC-97TM1; first compound 0.006325 µM): 0.258 | relative viability (LCLC-97TM1; first compound 0.06325 µM): 0.233 | relative viability (LCLC-97TM1; first compound 0.2 µM): 0.154 | relative viability (NCI-H322M; first compound 0.002 µM): 0.681 | relative viability (NCI-H322M; first compound 0.006325 µM): 0.624 | relative viability (NCI-H322M; first compound 0.02 µM): 0.711 | relative viability (NCI-H322M; first compound 0.06325 µM): 0.509 | relative viability (NCI-H322M; first compound 0.2 µM): 0.499 | relative viability (NCI-H460; first compound 0.002 µM): 0.473 | relative viability (NCI-H460; first compound 0.006325 µM): 0.432 | relative viability (NCI-H460; first compound 0.02 µM): 0.0674 | relative viability (NCI-H460; first compound 0.06325 µM): 0.0264 | relative viability (NCI-H460; first compound 0.2 µM): 0.0329 | relative viability (HCC-78; first compound 0.002 µM): 0.644 | relative viability (HCC-78; first compound 0.006325 µM): 0.611 | relative viability (HCC-78; first compound 0.02 µM): 0.666 | relative viability (HCC-78; first compound 0.06325 µM): 0.725 | relative viability (HCC-78; first compound 0.2 µM): 0.448 | relative viability (201T; first compound 0.002 µM): 0.832 | relative viability (201T; first compound 0.006325 µM): 0.867 | relative viability (201T; first compound 0.02 µM): 0.844 | relative viability (201T; first compound 0.06325 µM): 0.811 | relative viability (201T; first compound 0.2 µM): 0.827 | relative viability (NCI-H650; first compound 0.002 µM): 0.282 | relative viability (NCI-H650; first compound 0.006325 µM): 0.354 | relative viability (NCI-H650; first compound 0.02 µM): 0.307 | relative viability (NCI-H650; first compound 0.06325 µM): 0.252 | relative viability (NCI-H650; first compound 0.2 µM): 0.0854 | relative viability (NCI-H2126; first compound 0.002 µM): 0.573 | relative viability (NCI-H2126; first compound 0.006325 µM): 0.587 | relative viability (NCI-H2126; first compound 0.06325 µM): 0.593 | relative viability (NCI-H2126; first compound 0.2 µM): 0.507 | relative viability (LU99A; first compound 0.002 µM): 0.953 | relative viability (LU99A; first compound 0.006325 µM): 0.781 | relative viability (LU99A; first compound 0.02 µM): 0.5 | relative viability (LU99A; first compound 0.06325 µM): 0.855 | relative viability (LU99A; first compound 0.2 µM): 0.879 | relative viability (NCI-H647; first compound 0.002 µM): 0.391 | relative viability (NCI-H647; first compound 0.006325 µM): 0.484 | relative viability (NCI-H647; first compound 0.02 µM): 0.18 | relative viability (NCI-H647; first compound 0.06325 µM): 0.0995 | relative viability (NCI-H647; first compound 0.2 µM): 0.124 | relative viability (NCI-H1395; first compound 0.002 µM): 0.745 | relative viability (NCI-H1395; first compound 0.006325 µM): 0.694 | relative viability (NCI-H1395; first compound 0.02 µM): 0.634 | relative viability (NCI-H1395; first compound 0.06325 µM): 0.382 | relative viability (NCI-H1395; first compound 0.2 µM): 0.357 | relative viability (NCI-H2405; first compound 0.002 µM): 0.79 | relative viability (NCI-H2405; first compound 0.02 µM): 0.627 | relative viability (NCI-H2405; first compound 0.06325 µM): 0.297 | relative viability (NCI-H2405; first compound 0.2 µM): 0.191 | relative viability (NCI-H23; first compound 0.002 µM): 0.285 | relative viability (NCI-H23; first compound 0.006325 µM): 0.346 | relative viability (NCI-H23; first compound 0.02 µM): 0.265 | relative viability (NCI-H23; first compound 0.06325 µM): 0.164 | relative viability (NCI-H23; first compound 0.2 µM): 0.164 | relative viability (NCI-H2342; first compound 0.002 µM): 0.648 | relative viability (NCI-H2342; first compound 0.006325 µM): 0.82 | relative viability (NCI-H2342; first compound 0.02 µM): 0.546 | relative viability (NCI-H2342; first compound 0.06325 µM): 0.821 | relative viability (NCI-H2342; first compound 0.2 µM): 0.503 | relative viability (HCC-15; first compound 0.002 µM): 0.695 | relative viability (HCC-15; first compound 0.006325 µM): 0.565 | relative viability (HCC-15; first compound 0.02 µM): 0.73 | relative viability (HCC-15; first compound 0.06325 µM): 0.144 | relative viability (HCC-15; first compound 0.2 µM): 0.14 | relative viability (EPLC-272H; first compound 0.002 µM): 0.393 | relative viability (EPLC-272H; first compound 0.006325 µM): 0.337 | relative viability (EPLC-272H; first compound 0.02 µM): 0.311 | relative viability (EPLC-272H; first compound 0.06325 µM): 0.282 | relative viability (EPLC-272H; first compound 0.2 µM): 0.106 | relative viability (NCI-H661; first compound 0.002 µM): 0.554 | relative viability (NCI-H661; first compound 0.006325 µM): 0.544 | relative viability (NCI-H661; first compound 0.02 µM): 0.454 | relative viability (NCI-H661; first compound 0.06325 µM): 0.315 | relative viability (NCI-H661; first compound 0.2 µM): 0.309 | relative viability (NCI-H838; first compound 0.002 µM): 0.495 | relative viability (NCI-H838; first compound 0.006325 µM): 0.491 | relative viability (NCI-H838; first compound 0.02 µM): 0.422 | relative viability (NCI-H838; first compound 0.06325 µM): 0.176 | relative viability (NCI-H838; first compound 0.2 µM): 0.193
